Data: patent publication US4456752A, “Process for the preparation of 9-hydrazono-6,7,8,9-tetrahydro-4H-pyro[1,2-a]pyrimidine-4-one compounds, the salts and hydrates thereof” (Chinoin Gyogyszer es Vegyeszeti Termekek Gyara R.T., priority 1979, dated 1984)

What was measured:
[1] = tested on: allergic reactions induced by the antigen-antibody interaction; test: PCA test (Ovary), antiallergic activity on rats; format: in vivo; conditions: for ED50: Rattus norvegicus, iv, rats
Method: The test is carried out by the PCA test-method (Ovary: J. Immun. 81, 355, 1958) and the Church-test (British J. Pharm. 46, 56-66, 1972; Immunology 29, 527-534, 1975) and as a reference substance disodium chromoglycate is used. The test was carried out on rats.

allergic symptoms = conditions: oral / inhaler; background statement; cited from earlier work

## CCOc1ccc(NN=C2CCC(C)n3c2ncc(C(=O)O)c3=O)cc1 (racemic) [(±)-9-(4-ethoxyphenyl-hydrazono)-6-methyl-4-oxo-6,7,8,9-tetrahydro-4H--pyrido[1,2-a]pyrimidine-3-carboxylic acid]
[1]
  ED50: 0.87 µmol/kg

## O=C(O)c1cc(=O)c2c(OCC(O)COc3cccc4oc(C(=O)O)cc(=O)c34)cccc2o1 [Disodium chromoglycate, 1,3-bis-(2-carboxychromon-6-yl-ox)-2-hydroxypropane, reference compound]
[1]; oral versus i.v.
  oral activity (PCA test data, in words): effective only when administered intravenously
Allergic symptoms
  effectiveness by route (antiasthmatic agent, in words): not effective orally and it produces the desired effect only by using an inhaler

## CC1CCC(=NNc2cccc([N+](=O)[O-])c2)c2ncc(C(=O)O)c(=O)n21 (centres unmarked) [6-methyl-9-(3-nitrophenyl-hydrazono-4-oxo-6,7,8,9-tetrahydro-4H--pyrido[1,2-a]-pyrimidine-3-carboxylic acid]
[1]
  ED50: 0.52 µmol/kg

## CC1CCC(=NNc2cccc(Cl)c2)c2ncc(C(=O)O)c(=O)n21 (centres unmarked) [9-(3-chlorophenylhydrazono)-6-methyl-4-oxo-6,7,8,9-tetrahydro-4H--pyrido[1,2-a]-pyrimidine-3-carboxylic acid]
[1]
  ED50: 0.61 µmol/kg

## CC1CCC(=NNc2ccc(C(=O)O)cc2)c2ncc(C(=O)O)c(=O)n21 (centres unmarked) [9-(4-carboxyphenyl-hydrazono)-6-methyl-4-oxo-6,7,8,9-tetrahydro-4H--pyrido[1,2-a]pyrimidine-3-carboxylic acid]
[1]
  ED50: 7.6 µmol/kg

## CC1CCC(=NNc2ccc(Br)cc2)c2ncc(C(=O)O)c(=O)n21 (centres unmarked) [9-(4-bromophenylhydrazono)-6-methyl-4-oxo-6,7,8,9-tetrahydro-4H--pyrido[1,2-a]-pyrimidine-3-carboxylic acid]
[1]
  ED50: 0.82 µmol/kg

## Cc1cccc(NN=C2CCC(C)n3c2ncc(C(=O)O)c3=O)c1 (centres unmarked) [6-methyl-9-(3-methylphenyl-hydrazono)-4-oxo-6,7,8,9-tetrahydro-4H--pyrido[1,2-a]-pyrimidine-3-carboxylic acid]
[1]
  ED50: 0.42 µmol/kg
